Assay [1] addresses Phosphatidylinositol 4,5-bisphosphate 3-kinase catalytic subunit alpha isoform (Homo sapiens, UniProt P42336). In words: Inhibition of human recombinant PI3Kalpha assessed as PIP3 production by AlphaScreen assay. Background: In Alpha technology, singlet oxygen from a donor bead excites a nearby acceptor bead.
For assay [2], the target named is Phosphatidylinositol 4,5-bisphosphate 3-kinase catalytic subunit beta isoform (Homo sapiens, UniProt P42338). Nature of the assay: Inhibition of human recombinant PI3Kbeta assessed as PIP3 production by AlphaScreen assay.

Structures are written as SMILES.

Chain of Phosphatidylinositol 4,5-bisphosphate 3-kinase catalytic subunit beta isoform (P42338 whole entry, canonical isoform): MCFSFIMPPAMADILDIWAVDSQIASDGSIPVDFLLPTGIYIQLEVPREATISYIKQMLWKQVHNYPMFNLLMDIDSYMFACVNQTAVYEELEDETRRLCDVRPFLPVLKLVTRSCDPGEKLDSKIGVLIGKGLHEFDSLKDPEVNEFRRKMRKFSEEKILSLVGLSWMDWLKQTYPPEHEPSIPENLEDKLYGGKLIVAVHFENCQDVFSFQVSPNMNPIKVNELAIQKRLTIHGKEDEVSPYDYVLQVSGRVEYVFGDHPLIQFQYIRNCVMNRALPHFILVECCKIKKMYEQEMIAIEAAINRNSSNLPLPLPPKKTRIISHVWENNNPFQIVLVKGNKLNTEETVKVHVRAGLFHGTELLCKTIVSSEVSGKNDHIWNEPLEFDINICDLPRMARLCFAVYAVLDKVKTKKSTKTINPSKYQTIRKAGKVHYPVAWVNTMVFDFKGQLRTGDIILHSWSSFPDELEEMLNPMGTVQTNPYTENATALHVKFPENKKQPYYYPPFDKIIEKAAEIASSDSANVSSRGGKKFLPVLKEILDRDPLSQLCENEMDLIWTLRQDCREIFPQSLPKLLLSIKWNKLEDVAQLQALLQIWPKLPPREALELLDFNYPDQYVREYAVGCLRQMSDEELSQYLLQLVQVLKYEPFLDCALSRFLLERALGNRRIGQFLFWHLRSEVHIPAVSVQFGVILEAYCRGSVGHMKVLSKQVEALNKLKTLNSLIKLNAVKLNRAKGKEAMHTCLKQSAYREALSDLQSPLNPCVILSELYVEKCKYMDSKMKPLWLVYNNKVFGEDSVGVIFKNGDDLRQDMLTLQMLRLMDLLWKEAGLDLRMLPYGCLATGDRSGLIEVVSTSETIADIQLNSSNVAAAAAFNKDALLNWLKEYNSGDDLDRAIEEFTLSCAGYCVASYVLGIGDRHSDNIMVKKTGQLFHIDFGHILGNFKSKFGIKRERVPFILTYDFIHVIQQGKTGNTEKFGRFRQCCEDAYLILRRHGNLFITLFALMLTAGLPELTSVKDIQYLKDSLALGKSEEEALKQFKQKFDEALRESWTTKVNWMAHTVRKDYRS
Chain of Phosphatidylinositol 4,5-bisphosphate 3-kinase catalytic subunit alpha isoform (P42336 whole entry, canonical isoform): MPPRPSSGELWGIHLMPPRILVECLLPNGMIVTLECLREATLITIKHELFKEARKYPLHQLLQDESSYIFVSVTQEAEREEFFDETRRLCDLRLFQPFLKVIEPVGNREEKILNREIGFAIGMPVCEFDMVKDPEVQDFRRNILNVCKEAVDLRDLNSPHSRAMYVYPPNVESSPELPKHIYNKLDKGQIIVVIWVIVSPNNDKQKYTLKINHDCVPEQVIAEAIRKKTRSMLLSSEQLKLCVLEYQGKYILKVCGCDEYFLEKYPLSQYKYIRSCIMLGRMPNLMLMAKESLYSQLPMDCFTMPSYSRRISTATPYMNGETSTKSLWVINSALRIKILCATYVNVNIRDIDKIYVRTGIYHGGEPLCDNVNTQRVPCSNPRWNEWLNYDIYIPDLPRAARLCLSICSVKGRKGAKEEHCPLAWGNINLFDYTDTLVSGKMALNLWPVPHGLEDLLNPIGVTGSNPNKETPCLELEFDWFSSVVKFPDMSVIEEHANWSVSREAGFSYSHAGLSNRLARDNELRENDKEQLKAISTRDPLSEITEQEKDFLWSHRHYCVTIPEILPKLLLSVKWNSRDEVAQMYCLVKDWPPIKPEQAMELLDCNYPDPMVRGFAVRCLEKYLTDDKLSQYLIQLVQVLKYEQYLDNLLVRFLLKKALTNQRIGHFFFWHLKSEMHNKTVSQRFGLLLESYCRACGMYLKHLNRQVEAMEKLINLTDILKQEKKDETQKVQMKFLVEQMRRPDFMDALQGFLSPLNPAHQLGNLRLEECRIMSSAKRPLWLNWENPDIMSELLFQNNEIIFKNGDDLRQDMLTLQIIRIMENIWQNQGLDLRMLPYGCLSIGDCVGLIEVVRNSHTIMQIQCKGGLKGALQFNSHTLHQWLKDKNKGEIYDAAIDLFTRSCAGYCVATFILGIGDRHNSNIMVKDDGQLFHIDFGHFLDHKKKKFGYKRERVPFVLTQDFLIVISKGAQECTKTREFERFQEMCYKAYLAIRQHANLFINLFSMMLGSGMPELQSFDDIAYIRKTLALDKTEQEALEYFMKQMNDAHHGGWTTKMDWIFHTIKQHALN

In general, IC50 refers to the concentration that gives 50% inhibition. On to `COc1ccccc1OC(C)c1cc(C(=O)N(C)CCO)cn2c(=O)cc(N3CCOCC3)nc12` (centres undefined), for which the IC50 in assay [1] was 2500 nM; in assay [2] it was 400 nM.

Consider `CC(Nc1ccccc1)c1cc(C(=O)N(C)C)cn2c(=O)cc(N3CCOCC3)nc12` (centres undefined), for which the IC50 in assay [1] was determined as 2500 nM; in assay [2], 68 nM.

Consider `Cc1cc(OC(C)c2cc(C(=O)N(C)CCO)cn3c(=O)cc(N4CCOCC4)nc23)ccc1F` (centres undefined), for which, in assay [2], the IC50 was found to be 200 nM. For `CC(Nc1ccccc1)c1cc(C(=O)O)cn2c(=O)cc(N3CCOCC3)nc12` (centres undefined), the IC50 in assay [1] turned out to be 610 nM; in assay [2], 59 nM.

As to `COc1cccc(OC(C)c2cc(C(=O)N(C)CCO)cn3c(=O)cc(N4CCOCC4)nc23)c1` (centres undefined), the values for the IC50 in assay [1] and in assay [2] were 4500 nM and 47 nM, respectively. As to `CC(Oc1ccccc1F)c1cc(C(=O)N(C)CCO)cn2c(=O)cc(N3CCOCC3)nc12` (centres undefined), the half-inhibitory concentration (IC50) in assay [1] was determined as 3400 nM; in assay [2], 660 nM. Consider `CC(Nc1ccccc1)c1cc(C(=O)NCCN(C)C)cn2c(=O)cc(N3CCOCC3)nc12` (centres undefined), for which the figures for the IC50 in assay [1] and in assay [2] were 2300 nM and 35 nM, respectively. Taken in the same sequence, the figures for `Cc1cccc(OC(C)c2cc(C(=O)N(C)CCO)cn3c(=O)cc(N4CCOCC4)nc23)c1` (centres undefined) were 9400 nM and 180 nM. In the same order, the values of `Cc1cc(C(C)Nc2cc(Cl)ccc2C(=O)O)c2nc(N3CCOCC3)cc(=O)n2c1` (centres undefined) are 1460 nM and 31 nM. In the same order, the values of `Cc1cc(C(C)Nc2cccc(C(=O)O)c2)c2nc(N3CCOCC3)cc(=O)n2c1` (centres undefined) are 12100 nM and 4800 nM. Regarding `CC(Nc1ccccc1)c1cc(C(=O)NCCN2CCNCC2)cn2c(=O)cc(N3CCOCC3)nc12` (centres undefined), the IC50 was 4800 nM in assay [1] and 76 nM in assay [2]. Taken in the same sequence, the figures for `CC(Nc1ccccc1)c1cc(C(=O)N(C)CCO)cn2c(=O)cc(N3CCOCC3)nc12` (centres undefined) were 2200 nM and 58 nM.

Consider `Cc1cc(C(C)Nc2ccccc2-c2nnn[nH]2)c2nc(N3CCOCC3)cc(=O)n2c1` (centres undefined), for which the IC50 in assay [1] worked out at 1410 nM; in assay [2], 51 nM. In the same order, the values of `Cc1c(F)cccc1OC(C)c1cc(C(=O)N(C)CCO)cn2c(=O)cc(N3CCOCC3)nc12` (centres undefined) are 600 nM and 46 nM.

Take `CC(Oc1cccc(C#N)c1)c1cc(C(=O)N(C)CCO)cn2c(=O)cc(N3CCOCC3)nc12` (centres undefined): the IC50 in assay [1] was determined as 8200 nM; in assay [2], 1700 nM. Taken in the same sequence, the figures for `CC(Oc1ccccc1)c1cc(C(=O)N(C)CCO)cn2c(=O)cc(N3CCOCC3)nc12` (centres undefined) were 10100 nM and 190 nM. Taken in the same sequence, the figures for `CC(Nc1ccccc1)c1cc(C(=O)N(C)CC(=O)O)cn2c(=O)cc(N3CCOCC3)nc12` (centres undefined) were 3800 nM and 340 nM.

With `Cc1ccccc1OC(C)c1cc(C(=O)N(C)CCO)cn2c(=O)cc(N3CCOCC3)nc12` (centres undefined), the IC50 in assay [1] came out at 1300 nM; in assay [2], 110 nM. Consider `Cc1cc(C(C)Nc2ccccc2S(=O)(=O)O)c2nc(N3CCOCC3)cc(=O)n2c1` (centres undefined), for which the IC50 in assay [1] was 330 nM; in assay [2] it was 30 nM. In the same order, the values of `CC(Nc1ccccc1)c1cc(C(=O)N2CCOCC2)cn2c(=O)cc(N3CCOCC3)nc12` (centres undefined) are 6900 nM and 140 nM.

For the origin of these results see BindingDB's records for doi:10.1016/j.bmcl.2014.07.007 (Astrazeneca, 2014).
